The source of these data is PMC7177833, “2-Aminopyridine Analogs Inhibit Both Enzymes of the Glyoxylate Shunt in Pseudomonas aeruginosa” (International Journal of Molecular Sciences, 2020).

For one series, the system named is P. aeruginosa PAO1. Nature of the series: Antibacterial growth assay (OD600, 18 h) in LB or M9-acetate. The class given is cell-based. As to conditions: Pseudomonas aeruginosa; for inhibition at 200 µM: final optical density; for MIC: PAO1, MIC = lowest concentration inhibiting >75% of growth. The procedure: Growth assays were carried out using clear, U-bottom, sterile 96-well plates (Thermo Fisher Scientific, Bishop’s Stortford, UK). P. aeruginosa PAO1 overnight cultures were diluted to a starting OD600 of 0.05 in LB medium or M9 medium supplemented with 0.5% acetate. The test compounds were added to the indicated final concentrations, and the plates were covered with gas-permeable adhesive seals (Scientific Laboratory Supplies, Nottingham, UK). Assay controls included 1% DMSO, a positive antibiotic control (ciprofloxacin, 1 µg/mL), and medium-only wells as a control for background absorbance. […]

A further series has as its target T1, CYP2D6 (Homo sapiens, UniProt P10635).
T1 construct: pooled human liver microsomes; tissue BioIVT; host or cells: pooled human liver microsomes
Nature of the series: CYP450 inhibition in HLM, bufuralol probe. The class given is in vitro ADME. The note with it: read-out: IC50 CYP450 2D6.

Series [1] has as its target T2, MSPa (malate synthase G from P. aeruginosa) (Pseudomonas aeruginosa, UniProt Q9I636).
T2 construct: made in house
Nature of the series: Inhibition of purified MSPa enzymatic activity. The note with it: for inhibition at 75 µM: read-out: Enzyme Inhibition (%) at 75 µM MSPa. It is filed as biochemical. The method, then: The enzymatic activity of purified ICLPa and MSPa was assayed essentially as previously described. Compounds were added to the reaction mixtures (minus substrates) and incubated for 5 min at 37 °C. The enzyme concentration in the reaction mixtures was 170 nM for ICL and 25 nM for MS (based on the concentration of the monomer in each case). […] The reactions were initiated by the addition of pH-adjusted substrates, and the initial rates were recorded as A324 nm (for ICLPa) and A412 nm (for MSPa) using a Biospectrometer (Eppendorf, Stevenage, UK). Substrate turnover was calculated from the molar extinction coefficient of the assay products: Glyoxylate-phenylhydrazone (16,800/M/cm) for ICLPa and 2-nitro-5-thiobenzoic acid (14,150/M/cm) for MSPa.
All data fitting was performed with GraphPad Prism version 7.04 (GraphPad Software, Inc., La Jolla, CA, USA). The solid lines are the result of fitting the data to the equations denoted in relevant experimental sections. IC50 values were determined by a nonlinear fit using the equation for sigmoidal dose-response with variable slope. In all graphs, unless otherwise stated, the data points are the mean of experimental triplicates, and all error bars correspond to ± standard deviation.

The test system of the next series is CYP450 isozymes. Put plainly: CYP450 inhibition in HLM, whole isozyme panel. As to conditions: over the concentration range tested. The class given is in vitro ADME, human. The procedure: (§1) The CYP450 inhibition was determined by measuring the reaction products of known CYP450 substrates (probes). Probe solutions were prepared by diluting stock solutions with buffer (100 mM Tris-HCl, pH 7.5, and 0.5 mM EDTA) to the final indicated concentrations (Figure 5), and adding 180 µL of pooled human liver microsomes (20 mg/mL) (BioIVT, West Sussex, UK). These probe solutions were dispensed (195 µL) into clear 96-well plates with low evaporation lids (Corning, Turin, Italy) and the plates were prewarmed to 37 °C in a thermomixer (Hamilton, Agrate Brianza, Italy). Next, 5 µL of the test compound or appropriate positive control (Table S4) were added to the wells and the plates were incubated for a further 5 min. Following this, the reactions were started by adding NADPH regenerating solution (50 µL, see previous Section 4.7) to each well. CYP450 mixtures containing phenacetin, rosiglitazone, mephenytoin, atorvastatin, and nifedipine probes were incubated for 10 min at 37 °C, whereas those with midazolam and diclofenac were incubated for 5 min at 37 °C. Aliquots (100 µL) from each reaction mixture were quenched in 200 µL acetonitrile, and the mixtures were sedimented at 3000 ×g for 10 min at 4 °C. The supernatants were diluted in water containing 5 ng/mL Rolipram as an internal standard for LC-MS/MS analysis. All incubations were carried out in triplicate.
(§2) Probe products were analyzed on an API4000 Qtrap mass spectrometer (Applied Biosystems/MDS SCIEX, Monza, Italy) coupled with an Acquity UPLC system (Waters, Milan, Italy) and a CTC-PAL auto-injector (CTC Analytics AG, Zwingen, Switzerland). […] The column temperature was maintained at 60 °C. The injected sample volume was 10 µL, and analytes were eluted at a flow rate of 800 µL/min in a gradient of eluent A (water with 0.1% formic acid) and eluent B (acetonitrile with 0.1% formic acid). […] The analytes were quantified in multiple reaction-monitoring mode. Data were processed, and the percentage control activity was calculated based on a comparison between the ratio of the sample peak area and the peak area.

The target in a further series is T3, CYP2C8 (Homo sapiens, UniProt P10632).
T3 construct: pooled human liver microsomes; tissue BioIVT; host or cells: pooled human liver microsomes
T3 sequence (P10632 1-490): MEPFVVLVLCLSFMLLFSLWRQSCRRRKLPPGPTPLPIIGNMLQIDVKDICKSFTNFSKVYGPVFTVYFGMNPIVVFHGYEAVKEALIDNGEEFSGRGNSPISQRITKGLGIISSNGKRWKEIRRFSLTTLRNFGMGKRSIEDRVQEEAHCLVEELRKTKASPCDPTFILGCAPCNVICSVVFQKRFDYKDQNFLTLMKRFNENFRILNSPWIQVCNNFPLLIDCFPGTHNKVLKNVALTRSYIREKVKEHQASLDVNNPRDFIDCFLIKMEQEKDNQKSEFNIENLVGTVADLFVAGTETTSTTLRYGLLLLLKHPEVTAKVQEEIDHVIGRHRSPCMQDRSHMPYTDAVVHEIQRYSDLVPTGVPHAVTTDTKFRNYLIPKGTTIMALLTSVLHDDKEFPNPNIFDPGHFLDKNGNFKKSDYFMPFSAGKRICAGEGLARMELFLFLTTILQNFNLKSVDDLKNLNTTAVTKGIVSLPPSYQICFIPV
Put plainly: CYP450 inhibition in HLM, rosiglitazone probe. It is filed as in vitro ADME. The note with it: read-out: IC50 CYP450 2C8. The method, then: as §1, §2

Where [2] appears, read: PAO1, LB medium, read-out: PAO1 Growth Inhibition (%) at 200 µM LB.
[3] abbreviates: PAO1, M9-acetate medium, read-out: PAO1 Growth Inhibition (%) at 200 µM M9ac.
The mark [4] stands for this setting: M9 medium with 0.5% acetate, read-out: MIC M9ac.

Converted amounts (≈) assume the structure as drawn. Like-named read-outs stand apart in the source and are kept apart here.

T1 sequence (P10635 whole entry): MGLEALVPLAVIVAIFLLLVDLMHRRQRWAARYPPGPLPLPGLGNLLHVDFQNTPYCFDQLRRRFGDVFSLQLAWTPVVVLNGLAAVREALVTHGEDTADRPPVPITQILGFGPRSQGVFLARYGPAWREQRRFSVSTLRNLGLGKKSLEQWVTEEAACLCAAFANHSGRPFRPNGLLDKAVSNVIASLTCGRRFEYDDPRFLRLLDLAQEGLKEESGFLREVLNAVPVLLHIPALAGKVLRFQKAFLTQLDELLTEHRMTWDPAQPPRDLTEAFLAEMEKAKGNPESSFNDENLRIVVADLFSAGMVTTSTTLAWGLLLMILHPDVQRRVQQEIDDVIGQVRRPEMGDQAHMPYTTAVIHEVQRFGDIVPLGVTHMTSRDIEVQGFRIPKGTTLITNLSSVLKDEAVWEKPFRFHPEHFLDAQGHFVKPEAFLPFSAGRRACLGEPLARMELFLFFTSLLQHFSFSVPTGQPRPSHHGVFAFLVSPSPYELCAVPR
T2 sequence (Q9I636 whole entry): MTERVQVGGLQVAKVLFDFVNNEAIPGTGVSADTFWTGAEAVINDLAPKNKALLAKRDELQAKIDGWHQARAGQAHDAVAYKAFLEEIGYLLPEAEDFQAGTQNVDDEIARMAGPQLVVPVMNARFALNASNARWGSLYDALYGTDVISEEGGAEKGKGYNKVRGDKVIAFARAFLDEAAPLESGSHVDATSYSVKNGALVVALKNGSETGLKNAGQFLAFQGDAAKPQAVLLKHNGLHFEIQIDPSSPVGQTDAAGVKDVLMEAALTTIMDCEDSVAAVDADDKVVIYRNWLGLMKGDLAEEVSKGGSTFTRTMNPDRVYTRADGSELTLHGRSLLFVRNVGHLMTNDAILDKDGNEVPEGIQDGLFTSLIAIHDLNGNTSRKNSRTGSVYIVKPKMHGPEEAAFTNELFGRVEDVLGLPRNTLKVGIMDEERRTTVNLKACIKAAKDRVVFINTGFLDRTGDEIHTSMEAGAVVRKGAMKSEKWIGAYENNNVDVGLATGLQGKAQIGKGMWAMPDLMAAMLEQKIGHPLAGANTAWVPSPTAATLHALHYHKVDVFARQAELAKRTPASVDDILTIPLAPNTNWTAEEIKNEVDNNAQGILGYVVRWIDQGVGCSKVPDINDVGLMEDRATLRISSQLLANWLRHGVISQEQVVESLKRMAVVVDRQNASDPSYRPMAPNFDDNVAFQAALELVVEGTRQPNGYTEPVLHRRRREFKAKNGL

In general, inhibition refers to the change of the read-out against control, counted positive when it falls. Broadly, the MIC is the least concentration at which growth counts as inhibited. As a reminder, the IC50 is the concentration that gives 50% inhibition. Regarding `CC(C)(C)OC(=O)/N=C(\NC(=O)OC(C)(C)C)Nc1cc(Cl)ccn1` [SB002], the inhibition at 200 µM came to 0% with P. aeruginosa PAO1 (setting [2]) and 100% in the series with P. aeruginosa PAO1 (setting [3]). Also, the MIC was above 200 µM in the series on P. aeruginosa PAO1 (LB medium, read-out: MIC LB) and 1.6 µM (≈ 0.593 µg/mL) in the series on P. aeruginosa PAO1 (setting [4]). Besides, the results for the IC50 (at CYP2D6; in series [1]; at CYP2C8) were above 100 µM, 4.5 µM and above 100 µM, respectively. Further, the “Enzyme Inhibition (%) at 75 µM MSPa” value in series [1] (75 µM compound) was 94.5%. The inhibition at 75 µM in series [1] (75 µM compound) was above 90%. Besides, the “inhibitory drug–drug interactions (CYP450 inhibition)” value (“inhibitory drug–drug interactions” for short) in the series with CYP450 isozymes is “no major inhibitory drug–drug interactions”.
`CC(C)(C)OC(=O)/N=C(\NC(=O)OC(C)(C)C)Nc1cc(C#N)ccn1` [SB023]: the values for the inhibition at 200 µM with P. aeruginosa PAO1 (setting [2]) and with P. aeruginosa PAO1 (setting [3]) were 0% and 97%, respectively. The MIC is above 200 µM in the series with P. aeruginosa PAO1 (LB medium, read-out: MIC LB) and 13.5 µM (≈ 4.88 µg/mL) in the series on P. aeruginosa PAO1 (setting [4]). Also, the results for the IC50 (on CYP2D6; in series [1]; at CYP2C8) were above 100 µM, 14.5 µM and above 100 µM, respectively. In series [1] (75 µM compound), the inhibition at 75 µM came out at 90.4%. Moreover, the “inhibitory drug–drug interactions” value with CYP450 isozymes is “no major inhibitory drug–drug interactions”.
As to `Nc1cc(Cl)ccn1` [Compound 2-AP, 2-amino-4-chloropyridine, reference compound], the figures for the inhibition at 200 µM with P. aeruginosa PAO1 (setting [2]) and with P. aeruginosa PAO1 (setting [3]) were 0% and 8%, respectively. Further, the MIC with P. aeruginosa PAO1 (LB medium, read-out: MIC LB) was above 200 µM; in the series on P. aeruginosa PAO1 (setting [4]) it was above 200 µM. Further, the IC50 on CYP2D6 is above 100 µM; in series [1], above 75 µM; at CYP2C8 it was above 100 µM. Besides, in series [1] (75 µM compound), the inhibition at 75 µM was 18.2%. Also, in the series on CYP450 isozymes, the “inhibitory drug–drug interactions” value is “no major inhibitory drug–drug interactions”.
